# Read-outs that look alike come from different tables or passages of the source.
# Columns and labels:
# [1] = system: head twitch response (5-HT2A receptor-mediated); assay: Head twitch response; type: in vivo, C57BL/6J mice; conditions: for activity in the HTR assay (in words): C57BL/6J mice, within the dose range tested; for ED50: Mus musculus, ip
# 5-HT2A receptor = conditions: read-out: Ki vs. [3H]ketanserin, ref Stevenson et al. 2000; cited from earlier work
# [2] = system: 5-MeO-DMT discriminative stimulus; conditions: ref Glennon et al. 1980a; cited from earlier work
# rat 5-HT2A receptor = conditions: read-out: Ki, rat 5-HT2A receptor; [3H]ketanserin; ref Gallaher et al. (1993); cited from earlier work
# [3] = system: recombinant human 5-HT2A receptors; conditions: ref Arunotayanun et al. 2013; cited from earlier work
# [4] = system: DOM discriminative stimulus; conditions: ref Gatch et al. 2017; cited from earlier work
# [5] = humans, ref Shulgin and Shulgin 2004, cited from earlier work
# [6] = read-out: ED50 (95% CI) (mg/kg)
# [7] = read-out: ED50 (95% CI) (μmol/kg)
# [8] = 0.875 mg/kg IP, duration 30 min
# [9] = HTR, IP, male C57BL/6J mice, analysis block 5–30 min depending on drug
smiles,measurement,setting,value
"C=CCN(CC=C)CCc1c[nH]c2ccc(Br)cc12 [5-Br-DALT, 5-bromo-N,N-diallyltryptamine]",HTR Counts (mean ± SEM),"[1]; 3.5 mg/kg IP, duration 30 min",5.0 ± 0.3
same,HTR Counts (mean ± SEM),"[1]; 7 mg/kg IP, duration 30 min",10.8 ± 2.7
same,HTR Counts (mean ± SEM),"[1]; 14 mg/kg IP, duration 30 min",8.6 ± 2.7
same,HTR Counts (mean ± SEM),"[1]; 28 mg/kg IP, duration 30 min",1.4 ± 0.4
same,HTR Counts (mean ± SEM),"[1]; 56 mg/kg IP, duration 30 min",1.4 ± 1.4
same,activity in the HTR assay (in words),[1]; IP,active
same,ED50,[1]; [6],4.8 mg/kg
same,ED50,[1]; [7],13.5 µmol/kg
"CN(C)CCc1c(-c2ccccc2)[nH]c2ccccc12 [2-phenyl-N,N-dimethyltryptamine]",Ki,5-HT2A receptor,4.4 nM
CCc1cccc2c(CCN(C)C)c[nH]c12 [7-Ethyl-DMT],substitution in rats trained to discriminate 5-MeO-DMT from vehicle,[2],partial substitution
"C=CCN(CC=C)CCc1c[nH]c2ccccc12 [DALT, N,N-diallyltryptamine]",HTR Counts (mean ± SEM),[1]; [8],8.2 ± 2.8
same,HTR Counts (mean ± SEM),"[1]; 1.75 mg/kg IP, duration 30 min",6.8 ± 2.6
same,HTR Counts (mean ± SEM),"[1]; 3.5 mg/kg IP, duration 30 min",14.2 ± 4.3
same,HTR Counts (mean ± SEM),"[1]; 7 mg/kg IP, duration 30 min",21.8 ± 4.4
same,HTR Counts (mean ± SEM),"[1]; 14 mg/kg IP, duration 30 min",20.6 ± 2.7
same,activity in the HTR assay (in words),[1]; IP,active
same,ED50 (95% CI) (mg/kg),[1]; [9],3.42 (2.44–4.79) mg/kg
same,ED50 (95% CI) (μmol/kg),[1]; [9],12.3 (8.8–17.3) μmol/kg
"CCN(CC)CCc1c(-c2ccccc2)[nH]c2ccccc12 [2-phenyl-N,N-diethyltryptamine]",Ki,5-HT2A receptor,2.8 nM
"CN(C)CCc1c[nH]c2cccc(O)c12 [psilocin, 4-hydroxy-DMT]",Ki,rat 5-HT2A receptor,5100 nM
CN(C)CCc1c[nH]c2ccc(O)cc12 [bufotenine],Ki,rat 5-HT2A receptor,520 nM
"C=CCN(CC=C)CCc1c[nH]c2ccc(OC)cc12 [5-MeO-DALT, 5-methoxy-N,N-diallyltryptamine]",HTR Counts (mean ± SEM),"[1]; 1.75 mg/kg IP, duration 20 min",6.6 ± 1.0
same,HTR Counts (mean ± SEM),"[1]; 3.5 mg/kg IP, duration 20 min",19.8 ± 1.5
same,HTR Counts (mean ± SEM),"[1]; 7 mg/kg IP, duration 20 min",8.8 ± 2.6
same,HTR Counts (mean ± SEM),"[1]; 14 mg/kg IP, duration 20 min",8.0 ± 4.9
same,activity in the HTR assay (in words),[1]; IP,active
same,ED50,[1]; [6],2.25 mg/kg
same,ED50,[1]; [7],7.3 µmol/kg
same,functional activity at recombinant human 5-HT2A receptors,[3],agonist
same,substitution in rats trained to discriminate DOM,[4],full substitution
same,duration of psychoactive effects,[5]; oral 12–20 mg,2 to 4 h
same,oral doses producing psychoactive effects,[5]; oral,12 to 20 mg
"C=CCN(CC=C)CCc1c[nH]c2ccc(F)cc12 [5-F-DALT, 5-fluoro-N,N-diallyltryptamine]",HTR Counts (mean ± SEM),[1]; [8],9.8 ± 2.6
same,HTR Counts (mean ± SEM),"[1]; 1.75 mg/kg IP, duration 30 min",21.0 ± 5.7
same,HTR Counts (mean ± SEM),"[1]; 3.5 mg/kg IP, duration 30 min",36.0 ± 6.8
same,HTR Counts (mean ± SEM),"[1]; 7 mg/kg IP, duration 30 min",26.8 ± 7.1
same,HTR Counts (mean ± SEM),"[1]; 14 mg/kg IP, duration 30 min",21.0 ± 4.0
same,activity in the HTR assay (in words),[1]; IP,active
same,ED50,[1]; [6],1.58 mg/kg
same,ED50,[1]; [7],5.4 µmol/kg

# Source: paper PMC6230509 (Neuropharmacology, 2018)
